# Laboratory results published in US20170029388A1, “Treatment of Neurodegenerative Diseases with Asparagine Endopeptidase (AEP) Inhibitors and Compositions Related Thereto” (INTERCONTINENTAL GREAT BRANDS LLC, priority 2014, published 2017).
# Entries after “also recorded” stand apart in the source; their conditions may differ.
# Tests used:
# [1] = tested on: AEP; assay: Oxygen-glucose deprivation (OGD) in primary neurons, AEP activity; type: cell-based; conditions: 0.1 μM or 1.0 μM compound
# Method: A. AEP activity, measured in primary neuronal cultures with 5 μM Cbz-Ala-Ala-Asn-AMC (x-axis denotes neurons were treated with 0.1 μM or 1.0 μM specified compound). B. Caspase activity, measured in primary neuronal cultures with 5 μM Ac-Asp-Glu-Val-Asp-AMC. C. Cathepsin activity, measured in primary neuronal cultures with 5 μM D-Val-Leu-Lys-AMC. D. Inhibition of APP cleavage. Lysates of primary cortical neurons pre-incubated with compounds for 30 min, underwent OGD for 4 hrs, were reperfused for 18 hrs (normoxia neurons remained at normoxic conditions). E. APP can be cleaved in a dose-dependent manner. Lysates of primary cortical neurons pre-incubated with compounds for 30 min, underwent OGD for 4 hrs, were reperfused for 18 hrs (normoxia neurons remained at normoxic conditions).
# Depriving cells of oxygen and glucose is a cellular model that is employed to trigger acidosis in cultured cells. The efficacy of the compounds in a cellular model of oxygen-glucose deprivation (OGD) was determined in an effort to mimic the effects of stroke in primary cultured neurons. As a result of depriving neurons of oxygen and glucose-containing medium, AEP activity was doubled (FIG. 7A, ‘DMSO-Norm’ compared to ‘DMSO-OGD’), while Caspase-3 and Cathepsin activities remained relatively unchanged. […]
# [2] = tested on: 5XFAD mice; assay: Amyloid plaque staining and Aβ ELISA in 5XFAD mice; type: in vivo, mouse; conditions: oral once daily for 3 months
# Method: (§1) A. Thioflavin-S staining of amyloid plaques in the hippocampus (HP), motor cortex (MC), and frontal cortex (FC) of 5XFAD mouse brain sections. Scale bar, 50 μm. B. Quantitative analysis of amyloid plaques. […] F. The percentage of time spent in the target quadrant in the probe trail.
# Free-floating 30-μm-thick serial sections were treated with 0.3% hydrogen peroxide for 10 min, and then incubated with anti-AEP-cleaved APP (1:500) or anti-Aβ (1:500) overnight. The signal was developed using Histostain-SP kit (#956543, invitrogen) according to the manufacturer's instructions.
# After rinsed in distilled water, the sections were transferred to blocking solution containing 1% sodium hydroxide and 0.9% hydrogen peroxide for 20 min. The sections were incubated for 5 s in 0.25% acidic acid, then washed in distilled water and stained for 5 min with 0.0125% Thioflavin-S in 50% ethanol. The sections were washed with 50% ethanol and placed in distilled water. Then the sections were covered with glass cover using mounting solution.
# The mice brains were homogenized in 8X mass of 5 M guanidine HCl/50 mM Tris HCl (pH 8.0), and incubated at room temperature for 3 h. Then the samples were diluted with cold reaction buffer (phosphate buffered saline with 5% BSA and 0.03% Tween 20, supplemented with protease inhibitor cocktail), and centrifuged at 16 000 g for 20 min at 4° C. The supernatant were analysed by human Aβ42 ELISA kit according to the manufacturer's instructions (KHB3441, Invitrogen). The Aβ42 concentrations were determined by comparison with the standard curve.
# [3] = tested on: 5XFAD mice; assay: Morris water maze in 5XFAD mice; type: in vivo, mouse
# From the text: as §1
# Female wild-type and 5XFAD mice maintained on standard drinking water or compound #11 were trained in a round, water-filled tub (52 inch diameter) in an environment rich with extra maze cues. An invisible escape platform was located in a fixed spatial location 1 cm below the water surface independent of a subjects start position on a particular trial. In this manner, subjects needed to utilize extra maze cues to determine the platform's location. At the beginning of each trial, the mouse was placed in the water maze with their paws touching the wall from 1 of 4 different starting positions (N, S, E, W). Each subject was given 4 trials/day for 5 consecutive days with a 15-min inter-trial interval. […] Upon reaching the invisible escape platform, subjects were left on it for an additional 5 s to allow for survey of the spatial cues in the environment to guide future navigation to the platform. After each trial, subjects were dried and kept in a dry plastic holding cage filled with paper towels to allow the subjects to dry off The temperature of the water was monitored every hour so that mice were tested in water that was between 22 and 25° C. Following the 5 days of task acquisition, a probe trial was presented during which time the platform was removed and the percentage of time spent in the quadrant which previously contained the escape platform during task acquisition was measured over 60 s. All trials were analysed for latency, swim path length, and swim speed by means of MazeScan (Clever Sys, Inc.).
structure (smiles),measurement,setting,value
Nc1ccc(N2CCOCC2)c2nonc12 [Compound 11],AEP activity in OGD-treated neurons,[1],marked dose-dependent decrease
same,amyloid plaque deposition (Thioflavin S),"[2]; hippocampus, motor cortex, frontal cortex",decreased; also recorded: attenuated
same,concentration of Aβ 1-40 in brain lysates,[2],decreased
same,concentration of Aβ 1-42 in brain lysates,[2],decreased
same,"Morris water maze, distance to platform","[3]; 5 acquisition days, vs vehicle",decreased distance to platform
same,swim speed,"[3]; mouse, in vivo",not altered; also recorded: not affected
same,"Morris water maze probe test, time in target quadrant",[3]; vs vehicle,spend more time in the target quadrant; also recorded: spent more time in the target quadrant
